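Method: 48-hour compound exposure of cells in 96-well plates, five concentrations, linear interpolation of endpoints. Here, GI50 denotes the concentration required for 50% inhibition of growth. TGI denotes the concentration required for complete inhibition of growth.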
Key:
Assay in all cases: growth of human tumour cells (NCI), 48 h
786-0 renal = system: 786-0 renal
A498 renal = system: A498 renal
A549 NSCLC = system: A549 NSCLC
ACHN renal = system: ACHN renal
BT-549 breast = system: BT-549 breast
CAKI-1 renal = system: CAKI-1 renal
CCRF-CEM leukemia = system: CCRF-CEM leukemia
DU-145 prostate = system: DU-145 prostate
EKVX NSCLC = system: EKVX NSCLC
HCC-2998 colon = system: HCC-2998 colon
HCT-116 colon = system: HCT-116 colon
HCT-15 colon = system: HCT-15 colon
HL-60(TB) leukemia = system: HL-60(TB) leukemia
HOP-62 NSCLC = system: HOP-62 NSCLC
HOP-92 NSCLC = system: HOP-92 NSCLC
HS 578T breast = system: HS 578T breast
HT29 colon = system: HT29 colon
IGROV1 ovarian = system: IGROV1 ovarian
K-562 leukemia = system: K-562 leukemia
KM12 colon = system: KM12 colon
LOX IMVI melanoma = system: LOX IMVI melanoma
M14 melanoma = system: M14 melanoma
MALME-3M melanoma = system: MALME-3M melanoma
MCF7 breast = system: MCF7 breast
MDA-MB-231 breast = system: MDA-MB-231 breast
MDA-MB-435 = system: MDA-MB-435
MOLT-4 leukemia = system: MOLT-4 leukemia
NCI-H226 lung = system: NCI-H226 lung
NCI-H23 lung = system: NCI-H23 lung

O=C1N[C@@H]2[C@@H](O)[C@@H](O)[C@H](O)C[C@H]2c2cc3c(c(O)c21)OCO3
GI50 (786-0 renal): 0.174 µM
TGI (786-0 renal): 1.59 µM
GI50 (A498 renal): 0.2 µM
TGI (A498 renal): 0.541 µM
GI50 (A549 NSCLC): 0.185 µM
TGI (A549 NSCLC): 2.23 µM
GI50 (ACHN renal): 0.132 µM
TGI (ACHN renal): 0.825 µM
GI50 (BT-549 breast): 0.206 µM
TGI (BT-549 breast): 0.803 µM
GI50 (CAKI-1 renal): 0.142 µM
TGI (CAKI-1 renal): 1.16 µM
GI50 (CCRF-CEM leukemia): 0.105 µM
GI50 (DU-145 prostate): 0.0907 µM
TGI (DU-145 prostate): 0.647 µM
GI50 (EKVX NSCLC): 0.193 µM
TGI (EKVX NSCLC): 1.26 µM
GI50 (HCC-2998 colon): 0.0957 µM
TGI (HCC-2998 colon): 0.418 µM
GI50 (HCT-116 colon): 0.066 µM
TGI (HCT-116 colon): 1.07 µM
GI50 (HCT-15 colon): 0.116 µM
TGI (HCT-15 colon): 1.3 µM
GI50 (HL-60(TB) leukemia): 0.0973 µM
TGI (HL-60(TB) leukemia): 0.472 µM
GI50 (HOP-62 NSCLC): 0.0977 µM
TGI (HOP-62 NSCLC): 0.883 µM
GI50 (HOP-92 NSCLC): 0.0868 µM
TGI (HOP-92 NSCLC): 0.89 µM
GI50 (HS 578T breast): 0.113 µM
TGI (HS 578T breast): 0.713 µM
GI50 (HT29 colon): 0.119 µM
TGI (HT29 colon): 1.05 µM
GI50 (IGROV1 ovarian): 0.207 µM
TGI (IGROV1 ovarian): 1.47 µM
GI50 (K-562 leukemia): 0.0834 µM
TGI (K-562 leukemia): > 100 µM
GI50 (KM12 colon): 0.0778 µM
TGI (KM12 colon): 0.584 µM
GI50 (LOX IMVI melanoma): 0.0536 µM
TGI (LOX IMVI melanoma): 0.224 µM
GI50 (M14 melanoma): 0.0813 µM
TGI (M14 melanoma): 0.357 µM
GI50 (MALME-3M melanoma): 0.128 µM
TGI (MALME-3M melanoma): 0.537 µM
GI50 (MCF7 breast): 0.0656 µM
TGI (MCF7 breast): 0.881 µM
GI50 (MDA-MB-231 breast): 0.136 µM
TGI (MDA-MB-231 breast): 0.926 µM
GI50 (MDA-MB-435): 0.113 µM
TGI (MDA-MB-435): 0.648 µM
GI50 (MOLT-4 leukemia): 0.143 µM
TGI (MOLT-4 leukemia): > 100 µM
GI50 (NCI-H226 lung): 0.128 µM
TGI (NCI-H226 lung): 0.699 µM
GI50 (NCI-H23 lung): 0.102 µM
